Measurements: patent US11607446B2, “Personalized immunotherapy against several neuronal and brain tumors” (Immatics Biotechnologies GmbH, priority 2013, dated 2023)

System: CD8+ T cells
Assay: In vitro immunogenicity of HLA-A*02 class I peptides: in vitro T-cell priming with aAPCs loaded with peptide/MHC complexes and anti-CD28 antibody, pMHC multimer readout
Assay type: cell-based, human
Conditions: HLA-A*02 peptides; for Donors / Donors (percentage in brackets): healthy donors; for Donors: specific multimer+ CD8+ T-cell line after in vitro stimulation; for Wells: in vitro stimulated wells of healthy donors' CD8+ T cells, specific multimer+ readout

## EILDYIYEV (listed as Homo sapiens) [ASIC4-001]
  Donors: ++ (20%-49 % = ++)
  Wells: + (<20% = +)

## ILFPDIIARA (listed as Homo sapiens) [MAGEF1-001]
  Donors: ++++ (>70% = ++++)
  Wells: ++ (20%-49 % = ++)

## LLLGSPAAA (listed as Homo sapiens) [SEZ6L-001]
  Donors: ++++ (>70% = ++++)
  Wells: + (<20% = +)

## NLDTLMTYV (listed as Homo sapiens) [NLGN4X-001]
  Donors (percentage in brackets): 100%
  Donors: ++++ (>70% = ++++)
  Wells: ++ (20%-49 % = ++)

## GMMTAILGV (listed as Homo sapiens) [SLC35E1-002]
  Donors: ++ (20%-49 % = ++)
  Wells: + (<20% = +)

## LTFGDVVAV (listed as Homo sapiens) [FABP7-001]
  Donors: ++++ (>70% = ++++)
  Wells: + (<20% = +)

## ILIDWLVQV (listed as Homo sapiens) [CCNB1-002]
  Donors: +++ (50%-70% = +++)
  Wells: + (<20% = +)

## GLLDQIQAL (listed as Homo sapiens) [NLGN4X-002]
  Donors: ++ (20%-49 % = ++)
  Wells: + (<20% = +)

## RVADYIVKV [SLC10A4-002]
  Donors: +++ (50%-70% = +++)
  Wells: + (<20% = +)

## GLWHHQTEV (listed as Homo sapiens) [NRC AM-001]
  Donors (percentage in brackets): 100%
  Donors: ++++ (>70% = ++++)
  Wells: + (<20% = +)

## ILFEINPKL (listed as Homo sapiens) [ABCA13-001]
  Donors: ++ (20%-49 % = ++)
  Wells: + (<20% = +)

## ALTTLMHQL (listed as Homo sapiens) [PTP-001]
  Donors: ++ (20%-49 % = ++)
  Wells: + (<20% = +)

## YQDPHSTAV (listed as Homo sapiens) [EGFR-008]
  Donors: ++ (20%-49 % = ++)
  Wells: + (<20% = +)

## SLWGGDVVL (listed as Homo sapiens) [VPS13B-001]
  Donors (percentage in brackets): 100%
  Donors: ++++ (>70% = ++++)
  Wells: ++ (20%-49 % = ++)

## GLPSGAPPGV (listed as Homo sapiens) [MTSS1L-001]
  Donors (percentage in brackets): 100%
  Donors: ++++ (>70% = ++++)
  Wells: +++ (50%-70% = +++)

## KLVEFDFLGA (listed as Homo sapiens) [TACC3-001]
  Donors: ++ (20%-49 % = ++)
  Wells: + (<20% = +)

## FLYKVILSL (listed as Homo sapiens) [PTP-002]
  Donors: +++ (50%-70% = +++)
  Wells: + (<20% = +)

## GVLENIFGV (listed as Homo sapiens) [PCNXL3-001]
  Donors: ++ (20%-49 % = ++)
  Wells: + (<20% = +)

## LLYTGDLEAL (listed as Homo sapiens) [NPAS3-001]
  Donors: ++ (20%-49 % = ++)
  Wells: + (<20% = +)

## TMLARLASA (listed as Homo sapiens) [CSP-001]
  Donors: +++ (50%-70% = +++)
  Wells: + (<20% = +)

## NILEQIVSV (listed as Homo sapiens) [GRI-001]
  Donors: ++ (20%-49 % = ++)
  Wells: + (<20% = +)

## FLWSDGVPL (listed as Homo sapiens) [BCA-003]
  Donors: ++ (20%-49 % = ++)
  Wells: + (<20% = +)

## GLDPSSGAIHV (listed as Homo sapiens) [PCDHGC5-001]
  Donors (percentage in brackets): 100%
  Donors: ++++ (>70% = ++++)
  Wells: + (<20% = +)

## VLIQDVPTL (listed as Homo sapiens) [GRI-002]
  Donors: ++ (20%-49 % = ++)
  Wells: + (<20% = +)

## FLYNEALYSL (listed as Homo sapiens) [DPP3-001]
  Donors: +++ (50%-70% = +++)
  Wells: + (<20% = +)

## SLAERLFFQV (listed as Homo sapiens) [NAT8L-001]
  Donors: ++++ (>70% = ++++)
  Wells: + (<20% = +)

## LLQDRLVSV (listed as Homo sapiens) [PLEKHA4-001]
  Donors: +++ (50%-70% = +++)
  Wells: + (<20% = +)
